Tests used:
Type in all cases: cell-based, Staphylococcus aureus
[1] = test system: USA300 strain LAC biofilm; experiment: USA300 biofilm dispersal from a glass surface (flow cell, CLSM); conditions: AIP-I ~50 nM
Description: FIGS. 1A-B. USA300 biofilm dispersal from a glass surface. USA300 strain LAC with plasmid pALC2084 was inoculated into a once-through flow cell with a glass substratum and incubated for two days. AIP-I (˜50 nM) was added to the flow cell media and biofilm integrity was monitored for 20 hr. For each image depiction, a z series of images was obtained with CLSM and reconstructed with Volocity software, and each side of a grid square is 20 μm in the image reconstruction. (FIG. 1A) Wild-type LAC with pALC2084. (FIG. 1B) LAC ΔAgr:Tet mutant with pALC2084.
Biofilm Assays. […] For biofilm dispersal tests, AIP type I (AIP-I) was synthesized and quantified using an intein system (Malone et al., 2007), and biofilm dispersal tests were performed as previously described (Boles and Horswill, 2008). […] LAC biofilm integrity was monitored at 6 hr and 22 hr, and COMSTAT analysis was performed to quantify the biofilm properties.
USA300 has a functional biofilm dispersal pathway. […] Biofilm integrity was monitored using confocal laser scanning microscopy (CLSM), and as anticipated, the LAC biofilm appeared as a confluent layer ˜20 μm thick (FIG. 1A). […] In scanning the glass substratum, remaining live cells could not be detected, indicating the biomass completely dispersed from the surface.

[2] = test system: USA300 strain LAC biofilm; experiment: USA300 biofilm dispersal from a titanium surface (flow cell, CLSM); conditions: AIP-I ~50 nM
Description: FIGS. 6A-B. USA300 biofilm dispersal from a titanium surface. Biofilms of LAC with plasmid pCM12 were grown for two days in the modified flow cell chamber (FIG. 2) that contains titanium as a substratum. AIP-I was added to the flow cell media at ˜50 nM final concentration, and biofilm integrity was monitored for another 20 hr. Each image depiction is a reconstruction of a z series of CLSM images, and each side of a grid square is 20 μm. (FIG. 6A) Wild-type LAC with pCM12. (FIG. 6B) LAC ΔAgr::Tet mutant with pCM12.
Biofilm Assays. For biofilms grown on glass, flow cell biofilm growth, confocal scanning laser microscopy (CSLM), and computer image analysis were performed as previously described (Boles and Horswill, 2008). To monitor biofilm growth, LAC was transformed with GFP-expressing plasmid pALC2084 (Bateman et al., 2001), and the growth medium was supplemented with 1 μg/ml Cam and 20 ng/ml anhydrotetracycline for plasmid maintenance and induction of GFP expression. […] For biofilm dispersal tests, AIP type I (AIP-I) was synthesized and quantified using an intein system (Malone et al., 2007), and biofilm dispersal tests were performed as previously described (Boles and Horswill, 2008). […] LAC biofilm integrity was monitored at 6 hr and 22 hr, and COMSTAT analysis was performed to quantify the biofilm properties. […]

[3] = test system: USA300 strain LAC; conditions: 48 hr titanium biofilm, AIP ~50 nM for 24 hr, effluent cells tested with rifampicin and levofloxacin
Description: In parallel, biomass was detached (white triangles, dashed-line error bars) from the coupons with AIP-I addition and collected from flow cell effluents. The detached biomass was treated with identical rifampicin/levofloxacin concentrations and surviving CFU's determined.
Antibiotic susceptibility. […] To determine antibiotic resistance of dispersed biofilms, AIP was added (˜50 nM) to the media reservoir after 48 hr growth, and the biofilm effluent was collected on ice for 24 hr. Cell concentration was adjusted to the equivalent of one coupon of biomass, or ˜1×10^8 CFU. Cells were treated as described above with the exception that cells were pelleted by centrifugation at 13,000 RPM and then resuspended in 1 mL PBS before sonication.
To test antibiotic susceptibility of dispersed cells, LAC biofilms were grown for 48 hr on titanium, exposed to AIP (˜50 nM) for 24 hr, and detached cells were collected from the effluent.

[4] = LAC ΔAgr::Tet mutant (Agr inactivated), 20 hr

## YSTCDFIM (thiolactone bridge; Synechocystis PCC6803) [AIP-I, made with an intein system]
[1]; [4]
  biofilm integrity after signal addition: no effect on the biofilm integrity
[1]; wild-type LAC, 48 hr biofilm, 20 hr after addition
  biofilm integrity (biomass) after signal addition: complete loss of biomass
[2]; [4]
  biofilm response to AIP-I: did not respond to AIP-I treatment
[2]; wild-type LAC, two day biofilm, 20 hr post addition
  biofilm dispersal (biomass): complete dispersal of the biomass
[3]
  antibiotic susceptibility of cells after AIP-mediated dispersal: significantly more antibiotic susceptible

— patent US20120064125A1 (priority 2009, published 2012)
